From US10662203B2, “Pyrido[2,3-b]indole compounds for the treatment and prophylaxis of bacterial infection” (Hoffmann-La Roche Inc., priority 2017, dated 2020)
Where two headings read alike, the source gives them in different places.

Assays:
Assay type in all cases: cell-based
[1] = Cytotoxicity assay (HepG2, CellTiter-Blue cell viability); settings: human
Description: The cytotoxicity of compounds of present invention was assessed by HepG2 assay. HepG2 cells (ATCC HB-8065™) were seeded into 96-well plates (1.2×10^4 cells per well) and treated with compounds for 3 days, cell viability was measured at day 3 post compound treatment using the CellTiter-Blue® Cell Viability Assay (Promega, Cat. No. G8082). 20 μL of Cell titer blue buffer were added to each well of the cells, which were incubated for 3 hours at 37° C., and the fluorescence value was measured by a plate reader (Molecular Device SpectraMax M2). The CC50 value of each compound is plotted with GraphPad Prism using four parameter logistic equation.

[2] = system: S. aureus (ATCC29213); assay: 50% growth inhibitory concentration (IC50) determination assay; settings: Iso-Sensitest broth, 0.098 = detection limit
Method in brief: (§1)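 Each strain, inoculated at ~5×10^5 CFU/mL in Iso-Sensitest broth, faces a two-fold compound series spanning 50 to 0.097 μM final concentration. Incubation proceeds at 35±2° C, and cell growth is tracked by absorbance at λ=600 nm every 20 minutes over 16 h.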

[3] = system: K. pneumoniae (ATCC10031); assay: as above; settings: Iso-Sensitest broth, 0.098 = detection limit
Method in brief: as §1

[4] = system: A. baumannii (ATCC17978); assay: as above; settings: Iso-Sensitest broth, 0.098 = detection limit
Method in brief: as §1

[5] = HepG2 cells, 3 days treatment, "*": the detection limit, read-out: CC50
[6] = Acinetobacter baumannii, ATCC17978, A. baumannii ATCC17978

| SMILES | CC50 at 3 days [1, 5] [µM] | IC50 ([2]; Staphylococcus aureus) [µM] | IC50 ([3]; Klebsiella pneumoniae) [µM] | IC50 [4, 6] [µM] | CC50 at 3 days [1] [µM] | IC50 [2] [µM] | IC50 [3] [µM] | IC50 ([4]; A. baumannii ATCC17978) [µM] |
| --- | --- | --- | --- | --- | --- | --- | --- | --- |
| CNc1cc(F)c(F)c2c1[nH]c1ncc(-c3cnc4c(c3)c(=O)c(C(=O)O)cn4CC3COCCN3)c(N(C)C)c12 (centres unmarked) [Example 1.03] | 38.1 | < 0.098 | < 0.098 | 0.437 |  |  |  |  |
| CNc1cc(F)c(F)c2c1[nH]c1ncc(-c3cnc4c(c3)c(=O)c(C(=O)O)cn4CC3CCCN3)c(N3CCOCC3)c12 (centres unmarked) [Example 1.11] | > 100 |  |  | 0.847 |  |  |  |  |
| CCNc1cc(F)cc2c1[nH]c1ncc(-c3cnc4c(c3)c(=O)c(C(=O)O)cn4CC)c(-n3cc(CN)c(C(F)(F)F)n3)c12 [Example 1.15] | > 100 | < 0.098 | < 0.098 | 0.403 |  |  |  |  |
| CNc1cc(F)c(F)c2c1[nH]c1ncc(-c3cnc4c(c3)c(=O)c(C(=O)O)cn4C)c(N3CCC(F)(CN)C3)c12 (centres unmarked) [Example 1.23] | > 100 | < 0.098 | < 0.098 | 0.507 |  |  |  |  |
| CNCCn1cc(C(=O)O)c(=O)c2cc(-c3cnc4[nH]c5c(NC)cc(F)c(F)c5c4c3N(C)C)cnc21 [Example 1.26] | 32.5 | < 0.098 | < 0.098 | 0.569 |  |  |  |  |
| CNc1cc(F)c(F)c2c1[nH]c1ncc(-c3cnc4c(c3)c(=O)c(C(=O)O)cn4C)c(N3CCC(N)(C(F)(F)F)C3)c12 (centres unmarked) [Example 1.27] | 28.2 | < 0.098 |  | 0.602 |  |  |  |  |
| CNc1cc(F)c(F)c2c1[nH]c1ncc(-c3cnc4c(c3)c(=O)c(C(=O)O)cn4CC3CCN(C)CC3)c(N(C)C)c12 [Example 1.32] | 50.1 | < 0.098 | < 0.098 | 0.353 |  |  |  |  |
| CNc1cc(F)c(F)c2c1[nH]c1ncc(-c3cnc4c(c3)c(=O)c(C(=O)O)cn4CC(C)(C)O)c(N3CCOCC3)c12 [Example 1.35] | 76.9 | < 0.098 | < 0.098 | 0.663 |  |  |  |  |
| CNc1cc(F)cc2c1[nH]c1ncc(-c3cnc4c(c3)c(=O)c(C(=O)O)cn4C(C)(CO)CO)c(N3CCOCC3)c12 [Example 1.44] | > 100 |  |  |  |  |  |  |  |
| CNc1cc(F)cc2c1[nH]c1ncc(-c3cnc4c(c3)c(=O)c(C(=O)O)cn4C(C)CO)c(N3CCOCC3)c12 (centres unmarked) [Example 1.45] | > 100 | < 0.098 | < 0.098 | 0.472 |  |  |  |  |
| CNc1cc(F)cc2c1[nH]c1ncc(-c3cnc4c(c3)c(=O)c(C(=O)O)cn4C)c(N3CCC(O)C3)c12 (centres unmarked) [Example 1.47] | > 100 |  |  |  |  |  |  |  |
| CNc1cc(F)c(F)c2c1[nH]c1ncc(-c3cnc4c(c3)c(=O)c(C(=O)O)cn4C(C)CO)c(N3CCOCC3)c12 (centres unmarked) [Example 1.51] | > 100 | < 0.098 | < 0.098 | 0.533 |  |  |  |  |
| CNc1cc(F)cc2c1[nH]c1ncc(-c3cnc4c(c3)c(=O)c(C(=O)O)cn4C)c(N3CCC(CO)C3)c12 (centres unmarked) [Example 1.54] | > 100 | < 0.098 | < 0.098 | 0.461 |  |  |  |  |
| CNc1cc(F)cc2c1[nH]c1ncc(-c3cnc4c(c3)c(=O)c(C(=O)O)cn4Cc3cnccn3)c(N3CCOCC3)c12 [Example 1.58] | > 100 | < 0.098 |  | 0.643 |  |  |  |  |
| CNc1cc(F)cc2c1[nH]c1ncc(-c3cnc4c(c3)c(=O)c(C(=O)O)cn4C)c(N3CCC(C)(O)C3)c12 (centres unmarked) [Example 1.59] | 27.9 | < 0.098 | < 0.098 | 0.658 |  |  |  |  |
| [2H]C([2H])([2H])Nc1cc(F)c(F)c2c1[nH]c1ncc(-c3cnc4c(c3)c(=O)c(C(=O)O)cn4C3CCNC3)c(N(C)C)c12 (centres unmarked) [Example 1.64] | > 100 | < 0.098 | < 0.098 | 0.32 |  |  |  |  |
| CNc1c(Cl)c(F)cc2c1[nH]c1ncc(-c3cnc4c(c3)c(=O)c(C(=O)O)cn4C3CCNC3)c(N(C)C)c12 (centres unmarked) [Example 1.68] | 26.5 |  |  |  |  |  |  |  |

| SMILES | CC50 at 3 days [1, 5] [µM] | IC50 ([2]; Staphylococcus aureus) [µM] | IC50 ([3]; Klebsiella pneumoniae) [µM] | IC50 [4, 6] [µM] | CC50 at 3 days [1] [µM] | IC50 [2] [µM] | IC50 [3] [µM] | IC50 ([4]; A. baumannii ATCC17978) [µM] |
| --- | --- | --- | --- | --- | --- | --- | --- | --- |
| CNc1cc(F)c(F)c2c1[nH]c1ncc(-c3cnc4c(c3)c(=O)c(C(=O)O)cn4C)c(N3CCCC(CN(C)C)C3)c12 (centres unmarked) [Example 1.80] | 27.5 | < 0.098 | < 0.098 | 0.132 |  |  |  |  |
| CNc1cc(F)c(F)c2c1[nH]c1ncc(-c3cnc4c(c3)c(=O)c(C(=O)O)cn4C)c(N3C[C@H](O)[C@@H](F)C3)c12 [Example 1.82] | > 100 | < 0.098 | < 0.098 | 0.748 |  |  |  |  |
| CNc1cc(F)c(F)c2c1[nH]c1ncc(-c3cnc4c(c3)c(=O)c(C(=O)O)cn4C)c(N3C[C@H](C)[C@@H](O)C3)c12 [Example 1.83] | 26.4 | < 0.098 | < 0.098 | 0.519 |  |  |  |  |
| CNc1cc(F)c(F)c2c1[nH]c1ncc(-c3cnc4c(c3)c(=O)c(C(=O)O)cn4C)c(N3CCC(C)(CO)C3)c12 (centres unmarked) [Example 1.84] | 26.8 | < 0.098 | 0.11 | 0.326 |  |  |  |  |
| CNc1cc(F)c(F)c2c1[nH]c1ncc(-c3cnc4c(c3)c(=O)c(C(=O)O)cn4C3CCNC3)c(N3CCSCC3)c12 (centres unmarked) [Example 1.98] | > 100 | 8.84 | 0.107 | 0.744 |  |  |  |  |
| CNc1cc(F)cc2c1[nH]c1ncc(-c3cnc4c(c3)c(=O)c(C(=O)O)cn4NC)c(N3CC4[C@@H](C3)OCCN4C)c12 (some centres unmarked) [Example 1.113] | > 100 | < 0.098 | < 0.098 | 0.586 |  |  |  |  |
| CCn1cc(C(=O)O)c(=O)c2cc(-c3cnc4[nH]c5c(NC)cc(F)c(F)c5c4c3N3CC4CC(C3)O4)cnc21 [Example 1.128] |  |  |  |  | 27.1 |  |  |  |
| CCNc1cc(F)c(F)c2c1[nH]c1ncc(-c3cnc4c(c3)c(=O)c(C(=O)O)cn4C3CCNC3)c(N(C)C)c12 (centres unmarked) [Example 1.140] | > 100 | < 0.098 | < 0.098 | 0.631 |  |  |  |  |
| CNc1cc(F)c(F)c2c1[nH]c1ncc(-c3cnc4c(c3)c(=O)c(C(=O)O)cn4C3CCNC3)c(N(C)C)c12 (centres unmarked) [Example 1.150] | > 100 |  |  |  |  | < 0.098 | < 0.098 | 0.273 |
| CNc1cc(F)c(F)c2c1[nH]c1ncc(-c3cnc4c(c3)c(=O)c(C(=O)O)cn4C)c(N3CC[C@@H](O)C3)c12 [Example 1.151] | 37.2 | < 0.098 | < 0.098 | 0.311 |  |  |  |  |
| CNc1cc(F)c(F)c2c1[nH]c1ncc(-c3cnc4c(c3)c(=O)c(C(=O)O)cn4C)c(N3CC[C@H](O)C3)c12 [Example 1.163] | 28.9 | < 0.098 | < 0.098 | 0.171 |  |  |  |  |
| CNc1cc(F)c(F)c2c1[nH]c1ncc(-c3cnc4c(c3)c(=O)c(C(=O)O)cn4C)c(N3CC[C@H](CO)C3)c12 [Example 1.164] | 99.3 | < 0.098 | < 0.098 | 0.472 |  |  |  |  |
| CNc1cc(F)c(F)c2c1[nH]c1ncc(-c3cnc4c(c3)c(=O)c(C(=O)O)cn4C)c(N3CC[C@@H](CO)C3)c12 [Example 1.165] | > 100 | < 0.098 | < 0.098 | 0.336 |  |  |  |  |
| CNc1cc(F)c(F)c2c1[nH]c1ncc(-c3cnc4c(c3)c(=O)c(C(=O)O)cn4C)c(N3CCC4(CCCN(CCO)C4)C3)c12 (centres unmarked) [Example 1.194] | 72 | < 0.098 | < 0.098 | 0.199 |  |  |  |  |
| CNc1cc(F)c(F)c2c1[nH]c1ncc(-c3cnc4c(c3)c(=O)c(C(=O)O)cn4C)c(N3CCC4(CN(C)C4)C3)c12 [Example 1.228] | > 100 |  |  |  |  |  |  |  |
| CNc1cc(F)c(F)c2c1[nH]c1ncc(-c3cnc4c(c3)c(=O)c(C(=O)O)cn4C3CCNC3)c(N3CCO[C@@H](C)C3)c12 (some centres unmarked) [Example 1.251] | > 100 |  |  |  |  |  |  |  |
